Here are results for 18 compounds from US9737516B2, “Bicyclic heterocycles as bet protein inhibitors” (Incyte Corporation, priority 2013, dated 2017).

Each structure is given as a SMILES string. pIC50: −log10 of the molar value. Counter-ions that a name gives are not always drawn.

A word on the pIC50: it is the IC50 on a negative log10 scale, so that one unit is a factor of ten.

In one test the target is BRD4-BD1 (Homo sapiens (Human), UniProt O60885). In words: BRD4 AlphaScreen assay (BRD4-BD1). As to conditions: H4Ac4 peptide, 3.8 nM BRD4-BD1, read-out: BRD4 BD-1 enzyme IC50. Format: binding. The procedure: (§1) BRD4-BD1 and BRD4-BD2 assays were conducted in white 384-well polystyrene plate in a final volume of 20 μL for BD1 and 40 μL for BD2. Inhibitors were first serially diluted in DMSO and added to the plate wells before the addition of other reaction components. The final concentration of DMSO in the assay was 1.25% (BD1) and 0.83% (BD2). The assays were carried out at room temperature for 75 min. in the assay buffer (50 mM HEPES, pH 7.4, 100 mM NaCl, 0.05% CHAPS, 0.01% BSA), containing 50 nM Biotin-labeled tetra-acetylated histone H4 peptide (H4Ac4), 3.8 nM (BRD4-BD1, BPS Bioscience #31040) or 20 nM (BRD4-BD2, BPS Bioscience #31041). The reaction followed by the addition of 20 μL of assay buffer supplemented with Streptavidin donor beads (PerkinElmer 6760002) and GSH Acceptor beads (PerkinElmer-AL109C) at 4 µg/mL under reduced light. After plate sealing, the plate was incubated in the dark at room temperature for 75 min. before reading on a PHERAstar FS plate reader (BMG Labtech). IC50 determination was performed by fitting the curve of percent control activity versus the log of the inhibitor concentration using the GraphPad Prism 5.0 software. IC50 data for the Examples is presented in Table 1 as determined by Assay A1.
A general note: In Alpha technology, singlet oxygen from a donor bead excites a nearby acceptor bead.

The next test concerns the target BRD4-BD2 (Homo sapiens (Human), UniProt O60885). In words: BRD4 AlphaScreen assay (BRD4-BD2). Format: binding. As to conditions: H4Ac4 peptide, 20 nM BRD4-BD2, read-out: BRD4 BD-2 enzyme IC50. The procedure: as §1
Another test relates to KMS.12.BM cells. In words: KMS.12.BM cell viability assay (ATP quantitation, Cell Titer-GLO). Format: cell-based. To be noted: Homo sapiens, 72 h, 3 days, concentration required for 50% cell death, read-out: KMS cellular IC50. The procedure: KMS.12.BM cell line (human myeloma) was purchased from JCRB (Osaka, Japan) and maintained in RPMI with 10% FBS culture medium. To measure the cytotoxic activity of the compounds through ATP quantitation, the KMS.12.BM cells are plated in the RPMI culture medium at 5000 cells/well/per 100 μL into a 96-well polystyrene clear black tissue culture plate (Greiner-bio-one through VWR, NJ), in the presence or absence of a concentration range of test compounds. After 3 days, […] Cell Titer-GLO Luminescent (Promega, Madison, Wis.) cell culture agent is added to each well for 10 minutes at room temperature to stabilize the luminescent signal. This determines the number of viable cells in culture based on quantitation of the ATP present, which signals the presence of metabolically active cells. Luminescence is measured with the Top Count 384 (Packard Bioscience through Perkin Elmer, Boston, Mass.). Compound inhibition is determined relative to cells cultured with no drug and the IC50 is reported as the compound concentration required for 50% cell death. IC50 data for the Examples is presented in Table 2 as determined by Assay B1.
(In general: ATP-based viability assays read luminescence as a measure of living cells.)

In the next test the test system is C-myc in KMS.12.BM cells. Kind of test: KMS.12.BM C-myc ELISA assay. Format: cell-based. As to conditions: Homo sapiens, 2 hours. The procedure:
KMS.12.BM cell line (human myeloma) was purchased from JCRB (Osaka, Japan) and maintained in RPMI with 10% FBS culture medium. To measure the C-myc inhibitory activity of the compounds, the KMS.12.BM cells are plated in the RPMI culture medium at 75000 cells/well/per 200 μL into a 96-well flat bottom polystyrene tissue culture plate (Corning through VWR, N.J.), in the presence or absence of a concentration range of test compounds. After 2 hours, cell are pelleted and lysed with Cell Extraction Buffer (BioSource, Carlsbad, Calif.) in the presence of protease inhibitors (Life Technologies, Grand Island, N.Y. and Sigma, St Louis, Mo.). Clarified lyses are tested in a C-myc commercial ELISA (Life Technologies, Grand Island, N.Y.). Compound inhibition is determined relative to cells cultured with no drug and the IC50 is reported as the compound concentration required for 50% C-myc inhibition. IC50 data for the Examples is presented in Table 3 as determined by Assay C1.
(In general: ELISA stands for enzyme-linked immunosorbent assay.)

Turning to `Cn1cc(-c2cc3[nH]c(=O)[nH]c3cc2Oc2ccc(F)cc2F)c2cc[nH]c2c1=O` [Example 1, 5-(2,4-Difluorophenoxy)-6-(6-methyl-7-oxo-6,7-dihydro-1H-pyrrolo[2,3-c]pyridin-4-yl)-1,3-dihydro-2H-benzimidazol-2-one], the pIC50 at BRD4-BD1 was at least 7.00; at BRD4-BD2 it was at least 7.00; in the test on KMS.12.BM cells, at least 6.00; in the test on C-myc in KMS.12.BM cells, at least 6.00.
Take `Cn1cc(-c2cc3[nH]c(=O)n(C)c3cc2Oc2ccc(F)cc2F)c2cc[nH]c2c1=O` [Example 2, 6-(2,4-Difluorophenoxy)-1-methyl-5-(6-methyl-7-oxo-6,7-dihydro-1H-pyrrolo[2,3-c]pyridin-4-yl)-1,3-dihydro-2H-benzimidazol-2-one]: the pIC50 is at least 7.00 at BRD4-BD1, at least 7.00 on BRD4-BD2, at least 6.00 in the test with KMS.12.BM cells and at least 6.00 with C-myc in KMS.12.BM cells.
Take `Cn1cc(-c2cc3ncn(C)c3cc2Oc2ccc(F)cc2F)c2cc[nH]c2c1=O` [Example 3, 4-[6-(2,4-Difluorophenoxy)-1-methyl-1H-benzimidazol-5-yl]-6-methyl-1,6-dihydro-7H-pyrrolo[2,3-c]pyridin-7-one]: the pIC50 is at least 7.00 at BRD4-BD1, at least 7.00 on BRD4-BD2, at least 6.00 in the test with KMS.12.BM cells and at least 6.00 in the test with C-myc in KMS.12.BM cells.
Turning to `Cc1nc2cc(-c3cn(C)c(=O)c4[nH]ccc34)c(Oc3ccc(F)cc3F)cc2n1C` [Example 4, 4-[6-(2,4-Difluorophenoxy)-1,2-dimethyl-1H-benzimidazol-5-yl]-6-methyl-1,6-dihydro-7H-pyrrolo[2,3-c]pyridin-7-one], the pIC50 on BRD4-BD1 was at least 7.00; on BRD4-BD2 it was at least 7.00; in the test with KMS.12.BM cells it was at least 6.00; in the test on C-myc in KMS.12.BM cells it was at least 6.00.
As to `Cn1cc(-c2cc3[nH]cnc3cc2Oc2ccc(F)cc2F)c2cc[nH]c2c1=O` [Example 5, 4-[5-(2,4-Difluorophenoxy)-1H-benzimidazol-6-yl]-6-methyl-1,6-dihydro-7H-pyrrolo[2,3-c]pyridin-7-one trifluoroacetate], the pIC50 is at least 7.00 at BRD4-BD1, at least 7.00 on BRD4-BD2, at least 6.00 in the test on KMS.12.BM cells and at least 6.00 in the test with C-myc in KMS.12.BM cells.
`Cc1nc2cc(Oc3ccc(F)cc3F)c(-c3cn(C)c(=O)c4[nH]ccc34)cc2[nH]1` [Example 6, 4-[5-(2,4-Difluorophenoxy)-2-methyl-1H-benzimidazol-6-yl]-6-methyl-1,6-dihydro-7H-pyrrolo[2,3-c]pyridin-7-one trifluoroacetate]: the pIC50 at BRD4-BD1 is at least 7.00; on BRD4-BD2 it was at least 7.00; in the test with KMS.12.BM cells, at least 6.00; in the test on C-myc in KMS.12.BM cells, at least 6.00.
Regarding `Cn1cc(-c2cc3c(cc2Oc2ccc(F)cc2F)n(C)c(=O)n3C)c2cc[nH]c2c1=O` [Example 7, 5-(2,4-Difluorophenoxy)-1,3-dimethyl-6-(6-methyl-7-oxo-6,7-dihydro-1H-pyrrolo[2,3-c]pyridin-4-yl)-1,3-dihydro-2H-benzimidazol-2-one], the pIC50 on BRD4-BD1 is 6.00 to 7.00; on BRD4-BD2, at least 7.00; with KMS.12.BM cells, at least 6.00.
For `Cn1cc(-c2cc3[nH]nnc3cc2Oc2ccc(F)cc2F)c2cc[nH]c2c1=O` [Example 8, 4-(5-(2,4-difluorophenoxy)-1H-benzo[d][1,2,3]triazol-6-yl)-6-methyl-1H-pyrrolo[2,3-c]pyridin-7(6H)-one], the pIC50 is at least 7.00 on BRD4-BD1, at least 7.00 at BRD4-BD2, at least 6.00 in the test with KMS.12.BM cells and at least 6.00 in the test with C-myc in KMS.12.BM cells.
On to `Cn1cc(-c2cc3[nH]cnc3cc2Oc2ccc(F)cc2F)c2cn[nH]c2c1=O` [Example 9, 4-[6-(2,4-Difluorophenoxy)-1H-benzimidazol-5-yl]-6-methyl-1,6-dihydro-7H-pyrazolo[3,4-c]pyridin-7-one trifluoroacetate], for which the pIC50 on BRD4-BD1 was at least 7.00; at BRD4-BD2, at least 7.00; in the test on KMS.12.BM cells it was at least 6.00; in the test with C-myc in KMS.12.BM cells, at least 6.00.
With `Cn1cc(-c2cc3c(cc2Oc2ccc(F)cc2F)n(C)c(=O)n3C)c2cn[nH]c2c1=O` [Example 10, 4-[6-(2,4-Difluorophenoxy)-1,3-dimethyl-2-oxo-2,3-dihydro-1H-benzimidazol-5-yl]-6-methyl-1,6-dihydro-7H-pyrazolo[3,4-c]pyridin-7-one], the pIC50 at BRD4-BD1 is at least 7.00; at BRD4-BD2, at least 7.00; in the test with KMS.12.BM cells, at least 6.00; in the test with C-myc in KMS.12.BM cells, at least 6.00.
As to `Cn1cc(-c2cc3[nH]cnc3cc2OCC2CCC2)c2cc[nH]c2c1=O` [Example 11, 4-[5-(Cyclobutylmethoxy)-1H-benzimidazol-6-yl]-6-methyl-1,6-dihydro-7H-pyrrolo[2,3-c]pyridin-7-one], the pIC50 at BRD4-BD1 was at least 7.00; on BRD4-BD2, at least 7.00; in the test with KMS.12.BM cells, at least 6.00; with C-myc in KMS.12.BM cells, at least 6.00.
Turning to `CCn1cnc2cc(OCC3CCC3)c(-c3cn(C)c(=O)c4[nH]ccc34)cc21` [Example 12, 4-[5-(Cyclobutylmethoxy)-1-ethyl-1H-benzimidazol-6-yl]-6-methyl-1,6-dihydro-7H-pyrrolo[2,3-c]pyridin-7-one], the results for the pIC50 at BRD4-BD1, on BRD4-BD2 and with KMS.12.BM cells were at least 7.00, at least 7.00 and at least 6.00, respectively.
`CCn1cnc2cc(-c3cn(C)c(=O)c4[nH]ccc34)c(OCC3CCC3)cc21` [Example 13, 4-[6-(Cyclobutylmethoxy)-1-ethyl-1H-benzimidazol-5-yl]-6-methyl-1,6-dihydro-7H-pyrrolo[2,3-c]pyridin-7-one]: the negative logarithm of the IC50 (pIC50) on BRD4-BD1 is at least 7.00; on BRD4-BD2, at least 7.00; in the test on KMS.12.BM cells it was at least 6.00; with C-myc in KMS.12.BM cells, at least 6.00.
For the compound `Cn1cc(-c2cc3c(cc2OCC2CCC2)ncn3C)c2cc[nH]c2c1=O` [Example 14, 4-[5-(Cyclobutylmethoxy)-1-methyl-1H-benzimidazol-6-yl]-6-methyl-1,6-dihydro-7H-pyrrolo[2,3-c]pyridin-7-one], the pIC50 at BRD4-BD1 is at least 7.00; on BRD4-BD2 it was at least 7.00; in the test on KMS.12.BM cells it was at least 6.00; with C-myc in KMS.12.BM cells, at least 6.00.
Turning to `Cn1cc(-c2cc3ncn(C)c3cc2OCC2CCC2)c2cc[nH]c2c1=O` [Example 15, 4-[6-(Cyclobutylmethoxy)-1-methyl-1H-benzimidazol-5-yl]-6-methyl-1,6-dihydro-7H-pyrrolo[2,3-c]pyridin-7-one], the pIC50 was at least 7.00 at BRD4-BD1, at least 7.00 on BRD4-BD2, at least 6.00 in the test on KMS.12.BM cells and at least 6.00 in the test with C-myc in KMS.12.BM cells.
Take `Cn1cc(-c2cc3c(cc2OCC2CCC2)ncn3Cc2ccccc2)c2cc[nH]c2c1=O` [Example 16, 4-[5-(Cyclobutylmethoxy)-1-benzyl-1H-benzimidazol-6-yl]-6-methyl-1,6-dihydro-7H-pyrrolo[2,3-c]pyridin-7-one]: the pIC50 on BRD4-BD1 was 6.00 to 7.00; on BRD4-BD2 it was at least 7.00.
`Cn1cc(-c2cc3[nH]c(C4CCCC4)nc3cc2OCC2CCC2)c2cc[nH]c2c1=O` [Example 21, 4-[5-(Cyclobutylmethoxy)-2-cyclopentyl-1H-benzimidazol-6-yl]-6-methyl-1,6-dihydro-7H-pyrrolo[2,3-c]pyridin-7-one bis(trifluoroacetate)]: the pIC50 was at least 7.00 on BRD4-BD1, at least 7.00 on BRD4-BD2 and at least 6.00 in the test with KMS.12.BM cells.
`Cn1cc(-c2cc3[nH]c(CCC(=O)O)nc3cc2OCC2CCC2)c2cc[nH]c2c1=O` [Example 22, Ammonium 3-[5-(cyclobutylmethoxy)-6-(6-methyl-7-oxo-6,7-dihydro-1H-pyrrolo[2,3-c]pyridin-4-yl)-1H-benzimidazol-2-yl]propanoate]: the figures for the pIC50 on BRD4-BD1, on BRD4-BD2 and with KMS.12.BM cells were at least 7.00, at least 7.00 and 5.00 to 6.00, respectively.
